This is an account of results in ChEMBL document CHEMBL3792348, “Design, synthesis and structure activity relationship of potent pan-PIM kinase inhibitors derived from the pyridyl carboxamide scaffold” (Bioorg Med Chem Lett, 2016).

Data set [1] deals with Serine/threonine-protein kinase pim-1 (Homo sapiens, UniProt P11309). In words: Inhibition of Pim1 (unknown origin) using BAD peptide preincubated for 15 mins followed by ATP addition measured after 60 to 100 mins by Kinase-Glo reagent based luminescence assay.
Serine/threonine-protein kinase pim-1, sequence (P11309 whole entry): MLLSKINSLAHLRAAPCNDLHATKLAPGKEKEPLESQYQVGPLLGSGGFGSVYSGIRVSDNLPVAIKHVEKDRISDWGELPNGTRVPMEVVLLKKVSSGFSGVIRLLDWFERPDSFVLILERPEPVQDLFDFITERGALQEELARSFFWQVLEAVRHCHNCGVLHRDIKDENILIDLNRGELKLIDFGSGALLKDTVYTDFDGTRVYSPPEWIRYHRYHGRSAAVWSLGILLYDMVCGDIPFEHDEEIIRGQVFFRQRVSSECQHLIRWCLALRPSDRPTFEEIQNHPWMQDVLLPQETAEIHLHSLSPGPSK
In data set [2] the target is Serine/threonine-protein kinase pim-2 (Homo sapiens, UniProt Q9P1W9).
Serine/threonine-protein kinase pim-2, sequence (Q9P1W9 whole entry): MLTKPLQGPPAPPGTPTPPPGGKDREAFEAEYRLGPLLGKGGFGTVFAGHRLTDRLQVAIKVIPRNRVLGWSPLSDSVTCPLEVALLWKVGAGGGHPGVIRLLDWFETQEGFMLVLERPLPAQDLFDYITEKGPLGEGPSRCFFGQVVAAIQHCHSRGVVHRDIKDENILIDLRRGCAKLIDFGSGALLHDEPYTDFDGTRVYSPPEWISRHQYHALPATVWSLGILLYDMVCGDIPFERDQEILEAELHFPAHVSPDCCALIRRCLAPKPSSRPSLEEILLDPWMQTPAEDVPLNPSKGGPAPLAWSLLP
Description: Inhibition of Pim2 (unknown origin) using BAD peptide preincubated for 15 mins followed by ATP addition measured after 60 to 100 mins by Kinase-Glo reagent based luminescence assay
Data set [3] can be described thus: Hepatic extraction ratio in rat liver microsomes at 1 uM incubated for 30 mins by semi-quantitative LC-MS/MS analysis. Particulars: read-out: ERH. The format is ADME.
Data set [4] has as its target Serine/threonine-protein kinase pim-3 (Homo sapiens, UniProt Q86V86). As to the kind of experiment: Inhibition of Pim3 (unknown origin) using BAD peptide preincubated for 15 mins followed by ATP addition measured after 60 to 100 mins by Kinase-Glo reagent based luminescence assay.
Data set [5] can be described thus: Hepatic extraction ratio in human liver microsomes at 1 uM incubated for 30 mins by semi-quantitative LC-MS/MS analysis. As to conditions: read-out: ERH. The format is ADME.
Data set [6] is described as follows: Lipophilicity, logD of the compound. As to conditions: octanol/water. It counts as physicochemical.

Molecules are shown by their SMILES.

With `CC(=O)Nc1nc(C(=O)Nc2ccccc2N2CCCCC2)cs1`, the Ki was 90 nM in data set [1] and more than 12500 nM in data set [2].

Consider `Nc1cc(-c2ccncc2NC(=O)c2nc(-c3c(F)cccc3F)ccc2N)nc(C(F)(F)F)n1`, for which the hepatic extraction ratio at 0.5 h, 1 µM in data set [3] amounted to 0.91; in data set [5], 0.77. Also, the Ki in data set [4] is less than 3 nM; in data set [1] it was less than 1 nM; in data set [2], less than 3 nM. For the same compound, the logD in data set [6] was 4.3.

On to `Nc1cc(-c2ccncc2NC(=O)c2nc(-c3ccccc3F)ccc2N)ccn1`, for which the Ki in data set [4] was 3 nM; in data set [1], less than 1 nM; in data set [2] it was 35 nM.

Take `Nc1cncc(-c2ccncc2NC(=O)c2nc(-c3ccccc3F)ccc2N)n1`: the inhibition constant (Ki) amounted to 6 nM in data set [4], 3 nM in data set [1] and 94 nM in data set [2].

As to `Nc1ccc(-c2c(F)cccc2F)nc1C(=O)Nc1cnccc1-c1cccnc1N`, the Ki in data set [4] turned out to be 36 nM; in data set [1] it was 28 nM; in data set [2], 187 nM.

Turning to `Nc1cc(-c2ccncc2NC(=O)c2nc(-c3nccs3)ccc2N)nc(C(F)(F)F)n1`, the hepatic extraction ratio at 0.5 h, 1 µM in data set [3] was found to be 0.89; in data set [5] it was 0.87. Besides, the values for the Ki in data set [4], in data set [1] and in data set [2] were less than 3 nM, less than 1 nM and less than 3 nM, respectively.

`Cc1cc(-c2ccncc2NC(=O)c2nc(-c3ccccc3F)ccc2N)cc(N)n1`: the hepatic extraction ratio at 0.5 h, 1 µM in data set [3] and in data set [5] was 0.95 throughout. The Ki was less than 3 nM in data set [4], less than 1 nM in data set [1] and 4 nM in data set [2].

As for `Nc1cc(-c2ccncc2NC(=O)c2nc(-c3ccccc3F)ccc2N)nc(N)n1`, the Ki in data set [4] is 15 nM; in data set [1], 17 nM; in data set [2], 120 nM.

As to `Cc1cc(-c2ccncc2NC(=O)c2nc(-c3nccs3)ccc2N)nc(N)n1`, the hepatic extraction ratio at 0.5 h, 1 µM in data set [3] came out at 0.81; in data set [5], 0.64. Further, the inhibition constant Ki in data set [4] was less than 3 nM; in data set [1] it was less than 1 nM; in data set [2], 9 nM.

`Cc1cc(-c2ccncc2NC(=O)c2nc(-c3ccccc3F)ccc2N)nc(N)n1`: the hepatic extraction ratio at 0.5 h, 1 µM in data set [3] turned out to be 0.8; in data set [5], 0.58. Besides, the inhibition constant (Ki) is less than 3 nM in data set [4], less than 1 nM in data set [1] and less than 3 nM in data set [2].

In the case of `Cc1cc(-c2ccncc2NC(=O)c2nc(-c3c(F)cccc3F)ccc2N)cc(N)n1`, the results for the hepatic extraction ratio at 0.5 h, 1 µM in data set [3] and in data set [5] were 0.94 and 0.96, respectively. Further, the Ki was less than 3 nM in data set [4], less than 1 nM in data set [1] and less than 3 nM in data set [2].

On to `Nc1cc(-c2ccncc2NC(=O)c2nc(-c3c(F)cccc3F)ccc2N)ncn1`, for which the Ki is 5 nM in data set [4], 4 nM in data set [1] and 27 nM in data set [2].

For `Nc1nccc(-c2ccncc2NC(=O)c2nc(-c3c(F)cccc3F)ccc2N)n1`, the Ki was determined as 5 nM in data set [4], 6 nM in data set [1] and 50 nM in data set [2].

For `Nc1ccc(-c2ccccc2F)nc1C(=O)Nc1cnccc1-c1ccncc1`, the Ki in data set [4] amounted to 21 nM; in data set [1] it was 8 nM; in data set [2] it was 317 nM.

On to `Nc1ccc(-c2ccncc2NC(=O)c2nc(-c3ccccc3F)ccc2N)cn1`, for which the Ki came out at 12 nM in data set [4], 4 nM in data set [1] and 158 nM in data set [2].

`Nc1cc(-c2ccncc2NC(=O)c2nc(-c3c(F)cccc3F)ccc2N)ccn1`: the Ki in data set [4] was less than 3 nM; in data set [1], 2 nM; in data set [2] it was 8 nM.

As to `Cc1nc(N)cc(-c2ccncc2NC(=O)c2nc(-c3c(F)cccc3F)ccc2N)n1`, the hepatic extraction ratio at 0.5 h, 1 µM in data set [3] and in data set [5] was 0.82 in each case. Further, the Ki in data set [4] is less than 3 nM; in data set [1], less than 1 nM; in data set [2], less than 3 nM.

For the compound `COc1cc(-c2ccncc2NC(=O)c2nc(-c3c(F)cccc3F)ccc2N)cc(N)n1`, the Ki is less than 3 nM in data set [4], less than 1 nM in data set [1] and 4 nM in data set [2].
